According to ChEMBL document CHEMBL5576084, “Development of chromone-thiazolidine-2,4-dione Knoevenagel conjugates as apoptosis inducing agents” (Bioorg Med Chem Lett, 2024):

What was measured:
SK-MEL-28 = assay: Cytotoxicity against human SK-MEL-28 cells assessed as inhibition of cell growth incubated for 48 hrs by MTT assay; format: functional, cell-based; settings: SK-MEL-28, 48 h
HepG2 = assay: Cytotoxicity against human HepG2 cells assessed as inhibition of cell growth incubated for 48 hrs by MTT assay; format: functional, cell-based; settings: HepG2, 48 h
A549 = assay: Cytotoxicity against human A549 cells assessed as inhibition of cell growth incubated for 48 hrs by MTT assay; format: functional, cell-based; settings: A549, 48 h
HCT-116 = assay: Cytotoxicity against human HCT-116 cells assessed as inhibition of cell growth incubated for 48 hrs by MTT assay; format: functional, cell-based; settings: HCT-116, 48 h
[1] = Cytotoxicity against HEK293 cells assessed as inhibition of cell growth incubated for 48 hrs by MTT assay; format: toxicity, cell-based; settings: human
MCF7 = assay: Cytotoxicity against human MCF7 cells assessed as inhibition of cell growth incubated for 48 hrs by MTT assay; format: functional, cell-based; settings: MCF7, 48 h

For Cc1ccc2occ(/C=C3\SC(=O)N(CC(=O)c4ccc(Br)cc4)C3=O)c(=O)c2c1, the IC50 (SK-MEL-28) was 9.1 µM, the IC50 (HepG2) was > 10 µM and the IC50 (A549) was > 10 µM. The IC50 (HCT-116) was > 10 µM, the IC50 at 48 h [1] was 16.5 µM and the IC50 (MCF7) was > 10 µM.

For COc1ccc(C(=O)CN2C(=O)S/C(=C\c3coc4ccccc4c3=O)C2=O)cc1, the IC50 (SK-MEL-28) was > 10 µM, the IC50 (HepG2) was > 10 µM and the IC50 (A549) was 8.8 µM. The IC50 (HCT-116) was > 10 µM, the IC50 at 48 h [1] was 168 µM and the IC50 (MCF7) was > 10 µM.

For O=C(CN1C(=O)S/C(=C\c2coc3cc(Br)ccc3c2=O)C1=O)c1ccc(Cl)cc1, the IC50 (SK-MEL-28) was > 10 µM, the IC50 (HepG2) was > 10 µM and the IC50 (A549) was 8.4 µM. For the same compound, the IC50 (HCT-116) was > 10 µM, the IC50 at 48 h [1] was 18.1 µM and the IC50 (MCF7) was > 10 µM.

For Cc1ccc(C(=O)CN2C(=O)S/C(=C\c3coc4cc(F)ccc4c3=O)C2=O)cc1, the IC50 (SK-MEL-28) was > 10 µM, the IC50 (HepG2) was > 10 µM and the IC50 (A549) was > 10 µM. The IC50 (HCT-116) was > 10 µM, the IC50 at 48 h [1] was 16.6 µM and the IC50 (MCF7) was > 10 µM.

For Cc1ccc2occ(/C=C3\SC(=O)N(CC(=O)c4ccc(F)cc4)C3=O)c(=O)c2c1, the IC50 (SK-MEL-28) was > 10 µM, the IC50 (HepG2) was > 10 µM and the IC50 (A549) was > 10 µM. The IC50 (HCT-116) was > 10 µM, the IC50 at 48 h [1] was 15.2 µM and the IC50 (MCF7) was > 10 µM.

For Cc1ccc2occ(/C=C3\SC(=O)N(CC(=O)c4ccccc4)C3=O)c(=O)c2c1, the IC50 (SK-MEL-28) was > 10 µM, the IC50 (HepG2) was > 10 µM and the IC50 (A549) was > 10 µM. The IC50 (HCT-116) was > 10 µM, the IC50 at 48 h [1] was 13.6 µM and the IC50 (MCF7) was > 10 µM.

With O=C(CN1C(=O)S/C(=C\c2coc3ccccc3c2=O)C1=O)c1ccc(Cl)c(Cl)c1 the IC50 (SK-MEL-28) was > 10 µM, the IC50 (HepG2) was > 10 µM and the IC50 (A549) was > 10 µM. For the same compound, the IC50 (HCT-116) was > 10 µM, the IC50 at 48 h [1] was 19.6 µM and the IC50 (MCF7) was 9.1 µM.

For Cc1ccc(C(=O)CN2C(=O)S/C(=C\c3coc4cc(Br)ccc4c3=O)C2=O)cc1, the IC50 (SK-MEL-28) was > 10 µM, the IC50 (HepG2) was > 10 µM and the IC50 (A549) was 6.5 µM. The IC50 (HCT-116) was > 10 µM, the IC50 at 48 h [1] was 15.1 µM and the IC50 (MCF7) was 10.1 µM.

For O=C(CN1C(=O)S/C(=C\c2coc3ccc(Br)cc3c2=O)C1=O)c1ccccc1, the IC50 (SK-MEL-28) was > 10 µM, the IC50 (HepG2) was > 10 µM and the IC50 (A549) was > 10 µM. The IC50 (HCT-116) was > 10 µM, the IC50 at 48 h [1] was 13.2 µM and the IC50 (MCF7) was > 10 µM.

With Cc1ccc2occ(/C=C3\SC(=O)N(CC(=O)c4ccc(Cl)cc4)C3=O)c(=O)c2c1 the IC50 (SK-MEL-28) was > 10 µM, the IC50 (HepG2) was > 10 µM and the IC50 (A549) was 6.3 µM. For the same compound, the IC50 (HCT-116) was > 10 µM, the IC50 at 48 h [1] was 15.2 µM and the IC50 (MCF7) was 8.9 µM.

For O=C(CN1C(=O)S/C(=C\c2coc3ccccc3c2=O)C1=O)c1ccc(F)cc1, the IC50 (SK-MEL-28) was > 10 µM, the IC50 (HepG2) was > 10 µM and the IC50 (A549) was 8.2 µM. The IC50 (HCT-116) was > 10 µM, the IC50 at 48 h [1] was 15.5 µM and the IC50 (MCF7) was > 10 µM.
